Tests used:
[1] = system: Adjuvant Induced Arthritis (AIA); experiment: Adjuvant Induced Arthritis: daily arthritis severity / paw swelling score; type: in vivo, Lewis rats
[2] = system: Adjuvant Induced Arthritis (AIA); experiment: Adjuvant-induced arthritis: histological scoring of synovitis in tarsal joints; type: in vivo, Lewis rats; conditions: for Fibroplasia (0-3) / Inflammatory Cells (0-3) / Pannus (0-2) / Synovial Structure (0-3) / Total Synovitis Score (0-10): means ± SD
Description: Rats were injected with Complete Freund's Adjuvant (CFA), and synovitis in the tarsal joints was monitored.
(§1) Forty-two male, 8-10 weeks old, Lewis rats were housed according to standard facility operating procedures. They received a standard regimen of food and water ad libitum. Each animal was identified by a cage card indicating the project group and animal number. Each rat number was marked by indelible ink marker on the tail. Freund's Adjuvant-Complete (Sigma Immuno Chemicals, St. Louis, Mo.) was used to induce arthritis. Each mL contained 1 mg Mycobacterium tuberculosis heat killed and dried, 0.85 mL mineral oil and 0.15 mL mannide monooleate (Lot No. 084H8800).
(§2) The rats were injected intradermally with 0.1 mL of Freund's Adjuvant-Complete at the base of the tail. The animals were randomized to […], each group containing six rats. The groups received vehicle (2% Tween 80, 0.5% methylcellulose), or the Compound 2 compound at 1.0 mg/kg, 0.3 mg/kg, or 0.1 mg/kg orally each day. The rats began treatment on Day 8 after adjuvant injection.
(§3) At the end of the study the rats were euthanized with CO2, hindlimbs were removed at necropsy and fixed in 10% buffered formalin, and the tarsal joints were decalcified and embedded in paraffin. Histologic sections were stained with Hemotoxylin and Eosin or Saffranin O-Fast Green stain.
(§4) Slides were coded so that the examiner was blind to the treatment groups. Synovial tissue from tarsal joints were evaluated based on synovial hyperplasia, inflammatory cell infiltration, and pannus formation (see Table 4). Articular cartilage and bone was evaluated using Mankin's histological grading system. Biochemical and metabolic abnormalities in articular cartilage was assessed as from osteoarthritic human hip (see J. Bone Joint Surg (AM) 53A:152-153) (Table 5).

[3] = system: Adjuvant Induced Arthritis (AIA); experiment: Adjuvant-induced arthritis: histological scoring of cartilage changes (Mankin score) in tarsal joints; type: in vivo, Lewis rats; conditions: for Cartilage Cells (0-3) / Cartilage Structure (0-6) / Saffranin-O/Fast Green Staining (0-4) / Total Mankin Score (0-14): means ± SD
Description: as §1, §2, §3, §4

[4] = system: Collagen Induced Arthritis; experiment: Collagen induced arthritis model (anti-type II collagen mAbs plus LPS): hind paw edema; type: in vivo; conditions: BALB/c mice, 2.5 mg/kg orally once daily, over the course of the experiment
Description: Compound 2 was evaluated in BALB/c mice, 6-8 weeks of age, in which arthritis was induced by monoclonal antibodies raised against type II collagen, plus lipopolysaccharide (LPS). The animals were administered intravenously with a combination of four different mAbs totaling 4 mg/mouse on day 0, and followed by intravenous administration of […] of LPS 72 hours later (day 3). From day 3, one hour after LPS application, tested compounds were given orally once daily for 15 days. For each animal, an increase in volume of both hind paws was measured using a plethysmometer with water cell (12 mm diameter) on days 0, 5, 7, 10, 14 and 17. Percent inhibition of increase in volume was calculated. Reduction of edema in the hind paws by 30% or more was considered significant.

[5] = biological target: the molecule itself; experiment: X-ray crystallography, co-crystals with Compound 1 or Compound 2, two LBD molecules per asymmetric unit
[6] = Compound 2, 0.1 mg/kg orally for 2 weeks from day 8 after CFA
[7] = Compound 2, 0.3 mg/kg orally for 2 weeks from day 8 after CFA
[8] = Compound 2, 1 mg/kg orally for 2 weeks from day 8 after CFA
[9] = all concentrations tested (down to 0.1 mg/kg)

In the case of `C[C@@H]1c2cc(F)ccc2-c2ccccc2N1S(=O)(=O)c1ccc(O)cc1` [Compound 2, 4-[(8-Fluoro-6-methylphenanthridin-5(6H)-yl)sulfonyl]phenol], the “Paw swelling score (maximal score per day 12)” value ([1]; 0.3 mg/kg (first column so headed, c3) orally each day from Day 8, Day 8) is reported as 11.5, the “Paw swelling score (maximal score per day 12)” value ([1]; 0.3 mg/kg (first column so headed, c3) orally each day from Day 8, Day 9) is reported as 9.8 and the “Paw swelling score (maximal score per day 12)” value ([1]; 0.3 mg/kg (first column so headed, c3) orally each day from Day 8, Day 10) is reported as 7.3. The “Paw swelling score (maximal score per day 12)” value ([1]; 0.3 mg/kg (first column so headed, c3) orally each day from Day 8, Day 11) was 7, the “Paw swelling score (maximal score per day 12)” value ([1]; 0.3 mg/kg (first column so headed, c3) orally each day from Day 8, Day 12) was 6.7 and the “Paw swelling score (maximal score per day 12)” value ([1]; 0.3 mg/kg (first column so headed, c3) orally each day from Day 8, Day 13) was 3.7. For the same molecule, the “Paw swelling score (maximal score per day 12)” value ([1]; 0.3 mg/kg (first column so headed, c3) orally each day from Day 8, Day 14) was 3, the “Paw swelling score (maximal score per day 12)” value ([1]; 0.3 mg/kg (first column so headed, c3) orally each day from Day 8, Day 15) was 3.7 and the “Paw swelling score (maximal score per day 12)” value ([1]; 0.3 mg/kg (first column so headed, c3) orally each day from Day 8, Day 16) was 2.3. The “Paw swelling score (maximal score per day 12)” value ([1]; 0.3 mg/kg (first column so headed, c3) orally each day from Day 8, Day 17) was 2.3, the “Paw swelling score (maximal score per day 12)” value ([1]; 0.3 mg/kg (first column so headed, c3) orally each day from Day 8, Day 18) was 2.3 and the “Paw swelling score (maximal score per day 12)” value ([1]; 0.3 mg/kg (first column so headed, c3) orally each day from Day 8, Day 19) was 2. For the same molecule, the “Paw swelling score (maximal score per day 12)” value ([1]; 0.3 mg/kg (first column so headed, c3) orally each day from Day 8, Day 20) was 2, the “Paw swelling score (maximal score per day 12)” value ([1]; 0.3 mg/kg (first column so headed, c3) orally each day from Day 8, Day 21) was 1.7 and the “Paw swelling score (maximal score per day 12)” value ([1]; 0.3 mg/kg (first column so headed, c3) orally each day from Day 8, Day 22) was 1.7. For the same molecule, the “Paw swelling score (maximal score per day 12)” value ([1]; 0.3 mg/kg (first column so headed, c3) orally each day from Day 8, Day 23) was 1, the “Paw swelling score (maximal score per day 12)” value ([1]; 0.3 mg/kg (first column so headed, c3) orally each day from Day 8, Day 24) was 1.3 and the “Paw swelling score (maximal score per day 12)” value ([1]; 0.3 mg/kg (second column so headed, c4) orally each day from Day 8, Day 8) was 11.3. The “Paw swelling score (maximal score per day 12)” value ([1]; 0.3 mg/kg (second column so headed, c4) orally each day from Day 8, Day 9) was 10.7, the “Paw swelling score (maximal score per day 12)” value ([1]; 0.3 mg/kg (second column so headed, c4) orally each day from Day 8, Day 10) was 9.3 and the “Paw swelling score (maximal score per day 12)” value ([1]; 0.3 mg/kg (second column so headed, c4) orally each day from Day 8, Day 11) was 9.7. For the same molecule, the “Paw swelling score (maximal score per day 12)” value ([1]; 0.3 mg/kg (second column so headed, c4) orally each day from Day 8, Day 12) was 10, the “Paw swelling score (maximal score per day 12)” value ([1]; 0.3 mg/kg (second column so headed, c4) orally each day from Day 8, Day 13) was 4.2 and the “Paw swelling score (maximal score per day 12)” value ([1]; 0.3 mg/kg (second column so headed, c4) orally each day from Day 8, Day 14) was 3.5. The “Paw swelling score (maximal score per day 12)” value ([1]; 0.3 mg/kg (second column so headed, c4) orally each day from Day 8, Day 15) was 3.5, the “Paw swelling score (maximal score per day 12)” value ([1]; 0.3 mg/kg (second column so headed, c4) orally each day from Day 8, Day 16) was 3.3 and the “Paw swelling score (maximal score per day 12)” value ([1]; 0.3 mg/kg (second column so headed, c4) orally each day from Day 8, Day 17) was 3.3. For the same molecule, the “Paw swelling score (maximal score per day 12)” value ([1]; 0.3 mg/kg (second column so headed, c4) orally each day from Day 8, Day 18) was 3.3, the “Paw swelling score (maximal score per day 12)” value ([1]; 0.3 mg/kg (second column so headed, c4) orally each day from Day 8, Day 19) was 3 and the “Paw swelling score (maximal score per day 12)” value ([1]; 0.3 mg/kg (second column so headed, c4) orally each day from Day 8, Day 20) was 2.8. The “Paw swelling score (maximal score per day 12)” value ([1]; 0.3 mg/kg (second column so headed, c4) orally each day from Day 8, Day 21) was 2.5, the “Paw swelling score (maximal score per day 12)” value ([1]; 0.3 mg/kg (second column so headed, c4) orally each day from Day 8, Day 22) was 2.5 and the “Paw swelling score (maximal score per day 12)” value ([1]; 0.3 mg/kg (second column so headed, c4) orally each day from Day 8, Day 23) was 1.2. The “Paw swelling score (maximal score per day 12)” value ([1]; 0.3 mg/kg (second column so headed, c4) orally each day from Day 8, Day 24) was 1.3, the “Paw swelling score (maximal score per day 12)” value ([1]; 1 mg/kg orally each day from Day 8, Day 8) was 11.3 and the “Paw swelling score (maximal score per day 12)” value ([1]; 1 mg/kg orally each day from Day 8, Day 9) was 8.8. For the same molecule, the “Paw swelling score (maximal score per day 12)” value ([1]; 1 mg/kg orally each day from Day 8, Day 10) was 7, the “Paw swelling score (maximal score per day 12)” value ([1]; 1 mg/kg orally each day from Day 8, Day 11) was 6 and the “Paw swelling score (maximal score per day 12)” value ([1]; 1 mg/kg orally each day from Day 8, Day 12) was 5. For the same molecule, the “Paw swelling score (maximal score per day 12)” value ([1]; 1 mg/kg orally each day from Day 8, Day 13) was 1.7, the “Paw swelling score (maximal score per day 12)” value ([1]; 1 mg/kg orally each day from Day 8, Day 14) was 1.3 and the “Paw swelling score (maximal score per day 12)” value ([1]; 1 mg/kg orally each day from Day 8, Day 15) was 1.3. For the same molecule, the “Paw swelling score (maximal score per day 12)” value ([1]; 1 mg/kg orally each day from Day 8, Day 16) was 1.2, the “Paw swelling score (maximal score per day 12)” value ([1]; 1 mg/kg orally each day from Day 8, Day 17) was 1.2 and the “Paw swelling score (maximal score per day 12)” value ([1]; 1 mg/kg orally each day from Day 8, Day 18) was 1.2. The “Paw swelling score (maximal score per day 12)” value ([1]; 1 mg/kg orally each day from Day 8, Day 19) was 1.2, the “Paw swelling score (maximal score per day 12)” value ([1]; 1 mg/kg orally each day from Day 8, Day 20) was 1.2 and the “Paw swelling score (maximal score per day 12)” value ([1]; 1 mg/kg orally each day from Day 8, Day 21) was 1.2. For the same molecule, the “Paw swelling score (maximal score per day 12)” value ([1]; 1 mg/kg orally each day from Day 8, Day 22) was 1.2, the “Paw swelling score (maximal score per day 12)” value ([1]; 1 mg/kg orally each day from Day 8, Day 23) was 1 and the “Paw swelling score (maximal score per day 12)” value ([1]; 1 mg/kg orally each day from Day 8, Day 24) was 0.8. The “Paw swelling and redness (joint scores)” value ([1]; following treatment, there appeared to be a dose response) was “Decreases”, the “Fibroplasia (0-3)” value [2, 6] was 1.75 ± 0.42 and the “Inflammatory Cells (0-3)” value [2, 6] was 1.83 ± 0.52. The “Pannus (0-2)” value [2, 6] was 1.50 ± 0.84, the “Synovial Structure (0-3)” value [2, 6] was 2.33 ± 0.75 and the “Total Synovitis Score (0-10)” value [2, 6] was 7.42 ± 2.25. The “Fibroplasia (0-3)” value [2, 7] was 1.67 ± 0.26*t, the “Inflammatory Cells (0-3)” value [2, 7] was 1.25 ± 0.27 and the “Pannus (0-2)” value [2, 7] was 0.50 ± 0.84. The “Synovial Structure (0-3)” value [2, 7] was 1.58 ± 0.38, the “Total Synovitis Score (0-10)” value [2, 7] was 5.00 ± 1.30*#t and the “Fibroplasia (0-3)” value [2, 8] was 1.33 ± 0.41*t. The “Inflammatory Cells (0-3)” value [2, 8] was 1.17 ± 0.26, the “Pannus (0-2)” value [2, 8] was 0.25 ± 0.42 and the “Synovial Structure (0-3)” value [2, 8] was 1.42 ± 0.38. The “Total Synovitis Score (0-10)” value [2, 8] was 4.17 ± 1.21*#t, the Overall synovitis score [2, 9] was “significantly improved” and the “Tidemark Integrity (0-1)” value [3, 6] was 0. For the same molecule, the “Cartilage Cells (0-3)” value [3, 6] was 1.92 ± 0.21, the “Cartilage Structure (0-6)” value [3, 6] was 2.33 ± 0.68 and the “Saffranin-O/Fast Green Staining (0-4)” value [3, 6] was 2.42 ± 0.67. The “Total Mankin Score (0-14)” value [3, 6] was 6.83 ± 1.25, the “Tidemark Integrity (0-1)” value [3, 7] was 0 and the “Cartilage Cells (0-3)” value [3, 7] was 1.50 ± 0.32. The “Cartilage Structure (0-6)” value [3, 7] was 1.75 ± 0.42, the “Saffranin-O/Fast Green Staining (0-4)” value [3, 7] was 2.17 ± 0.26 and the “Total Mankin Score (0-14)” value [3, 7] was 5.42 ± 0.74*t. For the same molecule, the “Tidemark Integrity (0-1)” value [3, 8] was 0, the “Cartilage Cells (0-3)” value [3, 8] was 1.17 ± 0.26*t and the “Cartilage Structure (0-6)” value [3, 8] was 1.25 ± 0.27. The “Saffranin-O/Fast Green Staining (0-4)” value [3, 8] was 2.17 ± 0.26, the “Total Mankin Score (0-14)” value [3, 8] was 4.58 ± 0.74*t and the Overall cartilage score [3, 9] was “significantly improved”. The “Inhibition of paw edema” value [4] was > 30%.

B1: human estrogen receptor alpha ligand binding domain (ERalpha-LBD), carboxymethylated (receptor)
chain: SKKNSLALSLTADQMVSALLDAEPPILYSEYDPTRPFSEASMMGLLTNLADRELVHMINWAKRVPGFVDLTLHDQVHLLECAWLEILMIGLVWRSMEHPVKLLFAPNLLLDRNQGKCVEGMVEIFDMLLATSSRFRMMNLQGEEFVCLKSIILLNSGVYTFLSSTLKSLEEKDHIHRVLDKITDTLIHLMAKAGLTLQQQHQRLAQLLLILSHIRHMSNKGMEHLYSMKCKNVVPLYDLLLEMLDAHRLHAPTS
modifications: carboxymethylated with 5 mM iodoacetic acid while bound to the estradiol-affinity column; modified residues not stated
notes: also called human ERalpha-LBD; ERalpha-LBD (301-554)
B1: binds [5].
